This is an account of results in patent publication US20240417410A1, “TRICYCLIC COMPOUNDS FOR THE TREATMENT OF CANCER” (Hoffmann-La Roche Inc., priority 2023, published 2024).

Usually IC50 stands for the concentration at which inhibition is half-maximal. A high value points to weaker potency in that assay.

Assay [1] has as its system NCI-H358 cells (KRAS G12C). As to the kind of experiment: Cell viability assay (Cell Counting Kit-8, 3-day). The format is cell-based, human. The note with it: Homo sapiens, NCI-H358, 72 h, NCI-H358, 72 hrs incubation. The method in brief: (§1)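 Read-out is CCK-8 absorbance (OD450 minus OD650, 2 hrs after reagent), reflecting NADPH after 72 hrs of compound exposure in 0.5% DMSO. Seeding density was 5,000 cells/well for NCI-H358 and 2,000 for AGS and SW620. IC50 derived by 4-parameter sigmoidal fitting.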

For assay [2], the system named is SW620 cells (KRAS G12V). Kind of assay: Cell viability assay (Cell Counting Kit-8, 3-day). Type of assay: cell-based, human. The note with it: Homo sapiens, SW-620; SW620, 72 hrs incubation. The method in brief:
as §1
On the technique in general: Tetrazolium dyes change colour on reduction, which living cells bring about.

For assay [3], the system named is AGS cells (KRAS G12D). Kind of assay: Cell viability assay (Cell Counting Kit-8, 3-day). The format is cell-based, human. The conditions noted are these: Homo sapiens, 72 h, 72 hrs incubation. The method in brief: as §1
Assay [4] deals with KRAS G12C-BRAF complex (Homo sapiens (Human), UniProt P01116+P62937, G12C). Kind of assay: KRAS-BRAF with CYPA (500 nM) interaction assay (TR-FRET, Example 136). The format is biochemical. The conditions noted are these: KRAS G12C-BRAF disruption.
KRAS G12C-BRAF complex, sequence (P01116-2 other isoform, or with tags, fused parts or gaps G12C): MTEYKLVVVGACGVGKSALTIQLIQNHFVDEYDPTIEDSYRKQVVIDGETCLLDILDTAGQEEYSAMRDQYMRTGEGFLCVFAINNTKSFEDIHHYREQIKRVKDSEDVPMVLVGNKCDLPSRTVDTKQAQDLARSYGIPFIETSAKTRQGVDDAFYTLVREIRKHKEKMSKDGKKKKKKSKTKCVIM
KRAS G12C-BRAF complex, sequence (P62937 whole entry): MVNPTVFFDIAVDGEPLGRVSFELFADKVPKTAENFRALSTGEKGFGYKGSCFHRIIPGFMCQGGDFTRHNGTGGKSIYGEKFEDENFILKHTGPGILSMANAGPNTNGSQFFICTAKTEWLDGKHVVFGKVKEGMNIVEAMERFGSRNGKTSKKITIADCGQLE
Assay [5] relates to phosphorylation of ERK, KRAS G12C in NCI-H358 cells. As to the kind of experiment: pERK inhibition assay. Type of assay: cell-based. The conditions noted are these: Homo sapiens, NCI-H358, 4 h. The method in brief:
(§2)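 NCI-H358 (KRAS G12C), AGS (G12D) and SW620 (G12V) cells plated overnight, then treated with compound for 4 h in 0.5% DMSO. After fixing and methanol permeabilisation, phospho-ERK was detected by in-cell ELISA (HRP/TMB, OD450). IC50 from a 4-parameter sigmoidal fit.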

The test system of assay [6] is phosphorylation of ERK, KRAS G12D in AGS cells. As to the kind of experiment: pERK inhibition assay. The format is cell-based. The conditions noted are these: Homo sapiens, AGS, 4 h. The method in brief:
as §2

The test system of assay [7] is phosphorylation of ERK, KRAS G12V in SW620. As to the kind of experiment: pERK inhibition assay. Type of assay: cell-based. The conditions noted are these: Homo sapiens, SW-620, 4 h, SW620 cells. The method in brief:
as §2

Take `CO[C@@H](C)c1ncc(N2CCN(C)CC2)cc1-c1c2c3cc(cc4c3n1CCC4)-c1csc(n1)C[C@H](NC(=O)[C@H]1C[C@@H]1c1ccccc1)C(=O)N1CCC[C@H](N1)C(=O)OCC(C)(C)C2` (atropisomer, axis not shown; (M)) [Example 22, (1S,2S)-N-[(7S,13S)-(20M)-20-[2-[(1S)-1-methoxyethyl]-5-(4-methylpiperazin-1-yl)-3-pyridyl]-17,17-dimethyl-8,14-dioxo-15-oxa-4-thia-9,21,30,31-tetrazahexacyclo[23.3.1.1^2,5.1^9,13.0^19,27.0^21,26]hentriaconta-1 (28),2,5 (31), 19,25 (29),26-hexaen-7-yl]-2-phenyl-cyclopropanecarboxamide]: the IC50 amounted to 3.1 nM in assay [1]; 0.8 nM in assay [2]; 14.2 nM in assay [3]; 6.4 nM in assay [4]; 0.6 nM in assay [5]; 3.8 nM in assay [6]. The IC50 in assay [7] came to 0.7 nM.

With `CO[C@@H](C)c1ncc(N2CCN3CCOC[C@@H]3C2)cc1-c1c2c3cc(cc4c3n1CCC4)-c1csc(n1)C[C@H](NC(=O)[C@H]1C[C@@H]1C)C(=O)N1CCC[C@H](N1)C(=O)OCC(C)(C)C2` (atropisomer, axis not shown; (M)) [Example 25, (1S,2S)-N-[(7S,13S)-(20M)-20-[5-[(9αS)-3,4,6,7,9,9a-hexahydro-1H-pyrazino[2,1-c][1,4]oxazin-8-yl]-2-[(1S)-1-methoxyethyl]-3-pyridyl]-17,17-dimethyl-8,14-dioxo-15-oxa-4-thia-9,21,30,31-tetrazahexacyclo[23.3.1.1^2,5.1^9,13.0^19,27.0^21,26]hentriaconta-1 (28),2,5 (31),19,25 (29),26-hexaen-7-yl]-2-methyl-cyclopropanecarboxamide], the concentration for half-maximal inhibition (IC50) is 6.7 nM in assay [1]; 1.8 nM in assay [2]; 32.6 nM in assay [3]; 32.6 nM in assay [4]; 1 nM in assay [5]; 11.3 nM in assay [6]. In assay [7], inhibition was half-maximal at 0.8 nM (IC50).

As for `CO[C@@H](C)c1ncc(N2CCN(C)CC2)cc1-c1c2c3cc(cc4c3n1CCC4)-c1csc(n1)C[C@H](NC(=O)[C@H]1C[C@@H]1c1ccccn1)C(=O)N1CCC[C@H](N1)C(=O)OCC(C)(C)C2` (atropisomer, axis not shown; (M)) [Example 30, (1S,2S)-N-[(7S,13S)-(20M)-20-[2-[(1S)-1-methoxyethyl]-5-(4-methylpiperazin-1-yl)-3-pyridyl]-17,17-dimethyl-8,14-dioxo-15-oxa-4-thia-9,21,30,31-tetrazahexacyclo[23.3.1.1^2,5.1^9,13.0^19,27.0^21,26]hentriaconta-1 (28),2,5 (31),19,25 (29),26-hexaen-7-yl]-2-(2-pyridyl)cyclopropanecarboxamide], the IC50 in assay [1] amounted to 4.9 nM; in assay [2], 1.3 nM; in assay [3], 23.4 nM; in assay [4] it was 17.2 nM; in assay [5], 1.3 nM; in assay [6], 7.3 nM. Also, in assay [7], the IC50 was below 0.6 nM.

As to `CO[C@@H](C)c1ncc(N2CCN(C)CC2)cc1-c1c2c3cc(cc4c3n1CCC4)-c1csc(n1)C[C@H](NC(=O)[C@H]1C[C@H]1C)C(=O)N1CCC[C@H](N1)C(=O)OCC(C)(C)C2` (atropisomer, axis not shown; (M)) [Example 33, (1S,2R)-N-[(7S,13S)-(20M)-20-[2-[(1S)-1-methoxyethyl]-5-(4-methylpiperazin-1-yl)-3-pyridyl]-17,17-dimethyl-8,14-dioxo-15-oxa-4-thia-9,21,30,31-tetrazahexacyclo[23.3.1.1^2,5.1^9,13.0^19,27.0^21,26]hentriaconta-1 (28),2,5 (31),19,25 (29),26-hexaen-7-yl]-2-methyl-cyclopropanecarboxamide], the IC50 in assay [1] came out at 32.3 nM; in assay [2], 7.4 nM; in assay [3] it was 100 nM; in assay [4] it was 19.5 nM; in assay [5] it was 8.5 nM; in assay [6], 23.1 nM. The same compound displayed an IC50 in assay [7] of 2.7 nM.
